# Test results from patent US10947205B2, “Oxazolidinone compounds and methods of use thereof as antibacterial agents” (priority 2015, dated 2021).
# Read-outs that look alike come from different tables or passages of the source.
# Columns and labels:
# [1] = tested on: mitochondrial protein synthesis in HepG2 cells (COX-I / SDH-A); experiment: Mitochondrial protein synthesis assay; assay type: cell-based; settings: Homo sapiens, 96 h; HepG2 cells, 4 days, ratio of COX-1 to SDH-A levels; read-out: MPS IC50_μM
# Procedure: (§1) Inhibition of mitochondrial protein synthesis was assessed in HepG2 cells by comparing the levels of two subunits of oxidative phosphorylation enzyme complexes, subunit I of Complex IV (COX-I) and the 70 kDa subunit of Complex II (SDH-A). COX-I is mitochondrial DNA encoded and SDH-A is nuclear DNA encoded. HepG2 cells were seeded in 96-well collagen coated plates at 8,000 cells per well and exposed to 2-fold serial dilutions of compounds from 100 LM to 6.25 μM. Microtiter plates were incubated for approximately 5 replication cycles (4 days) prior to assessment of protein levels using a kit as described by the manufacturer (ab 110217 MitoBiogenesis In Cell ELISA Kit, Abcam, Cambridge, Mass.). Inhibition of mitochondrial protein synthesis was expressed as a ratio of COX-1 to SDH-A levels.
# as §1, with “μM” for “LM”
# [2] = tested on: Staphylococcus aureus (methicillin resistant, MB5393, COL); experiment: microbe, parasite or virus in culture; assay type: cell-based; settings: MRSA, 22 h, read-out: MRSA COL MITC95 μM
# Procedure: Inhibition of Staphylococcus aureus (methicillin resistant, MB5393, COL) growth was assessed in cation adjusted Mueller Hinton II broth (CAMHB) in 384-well microtiter plates. Bacteria were dispensed into microtiter plates at approximately 5×10^5 actively growing cells in 49 μL volumes per well. Cells were exposed to 2-fold serial dilutions of compounds from 200 μM to 0.195 μM and growth compared to drug-free control. Compound dilutions were prepared in 100% dimethylsulfoxide and added to microtiter plates in 1 μL volumes per well. Full growth control wells contained dimethylsufoxide and bacteria. No growth control wells contained dimethysulfoxide and CAMHB but no bacteria. Growth inhibition was assessed after a 22-hour growth period by measuring optical density using a spectrophotometer. The lowest concentration of test compound required to inhibit 95% of the growth of the bacteria was defined as the MITC95. All studies were done in a BSL2 facility.
# [3] = tested on: Mycobacterium tuberculosis (Mtb); experiment: microbe, parasite or virus in culture; assay type: cell-based, Mycobacterium tuberculosis H37Rv (Mtb-GFP); settings: 168 h
# [4] = pH 6.8, read-out: Mtb Cho MITC95_μM
# [5] = pH 6.8, read-out: Mtb Glu MITC95_μM
SMILES,IC50 [1] [µM],MIC [2] [µM],"MIC [3, 4] [µM]","MIC [3, 5] [µM]"
"NC[C@H]1CN(c2ccc(-c3cccc(N4CCS(=O)(=O)CC4)c3)c(F)c2)C(=O)O1 [Example 21, (5S)-5-(aminomethyl)-3-[3′-(1,1-dioxidothiomorpholin-4-yl)-2-fluorobiphenyl-4-yl]-1,3-oxazolidin-2-one]",25,200,1.5,0.39
"NC[C@H]1CN(c2ccc(-c3ccc(F)nc3)c(F)c2)C(=O)O1 [Example 19, (5S)-5-(aminomethyl)-3-[3-fluoro-4-(6-fluoropyridin-3-yl)phenyl]-1,3-oxazolidin-2-one]",> 20,200,0.09,0.485
"C[S+]([O-])c1ccc(-c2ccc(N3C[C@H](CN)OC3=O)cc2F)cc1 (stereo partly drawn) [Example 7, (5S)-5-(aminomethyl)-3-[2-fluoro-4′-(methylsulfinyl)biphenyl-4-yl]-1,3-oxazolidin-2-one]",> 20,200,0.09,0.04
"CSc1ccc(-c2ccc(N3C[C@H](CNC(=O)C4CC4)OC3=O)cc2F)cc1 [Example 41, (S)—N-((3-(2-fluoro-4′-(methylthio)-[1,1′-biphenyl]-4-yl)-2-oxooxazolidin-5-yl)methyl)cyclopropanecarboxamide]",8,200,0.04,0.04
"NC[C@H]1CN(c2ccc(-c3cccc([N+](=O)[O-])c3)c(F)c2)C(=O)O1 [Example 20, (5S)-5-(aminomethyl)-3-(2-fluoro-3′-nitrobiphenyl-4-yl)-1,3-oxazolidin-2-one]",> 20,200,0.58,0.14
"COc1ncc(-c2ccc(N3C[C@H](CN)OC3=O)cc2F)cn1 [Example 28, (5S)-5-(aminomethyl)-3-[3-fluoro-4-(2-methoxypyrimidin-5-yl)phenyl]-1,3-oxazolidin-2-one]",> 100,200,1.14,0.3
"CCOC(=O)NC[C@H]1CN(c2ccc(-c3ccc(SC)cc3)c(F)c2)C(=O)O1 [Example 63, ethyl ({(5S)-3-[2-fluoro-4′-(methylsulfanyl)biphenyl-4-yl]-2-oxo-1,3-oxazolidin-5-yl}methyl)carbamate]",18,200,0.19,0.29
"NC[C@H]1CN(c2ccc(-c3cnn(C(F)F)c3)c(F)c2)C(=O)O1 [Example 36, (5S)-5-(aminomethyl)-3-{4-[1-(difluoromethyl)-1H-pyrazol-4-yl]-3-fluorophenyl}-1,3-oxazolidin-2-one]",–,200,0.48,1.5
"CSc1ccc(-c2ccc(N3C[C@H](CNC(=O)NN(C)C)OC3=O)cc2F)cc1 [Example 60, (S)—N-((3-(2-fluoro-4′-(methylthio)-[1,1′-biphenyl]-4-yl)-2-oxooxazolidin-5-yl)methyl)-2,2-dimethylhydrazinecarboxamide]",–,200,1.14,2.3
"NC[C@H]1CN(c2ccc(-c3cccc(C(N)=O)c3)c(F)c2)C(=O)O1 [Example 10, 4′-[(5S)-5-(aminomethyl)-2-oxo-1,3-oxazolidin-3-yl]-2′-fluorobiphenyl-3-carboxamide]",> 20,200,0.09,0.09
"NC[C@H]1CN(c2cnc(N3CCS(=O)(=O)CC3)c(F)c2)C(=O)O1 [Example 48, (S)-5-(aminomethyl)-3-(6-(1,1-dioxidothiomorpholino)-5-fluoropyridin-3-yl)oxazolidin-2-one]",> 100,200,0.78,0.39
"COC(=O)NC[C@H]1CN(c2ccc(-c3ccc(SC)cc3)c(F)c2)C(=O)O1 [Example 62, (S)-methyl ((3-(2-fluoro-4′-(methylthio)-[1,1′-biphenyl]-4-yl)-2-oxooxazolidin-5-yl)methyl)carbamate]",10,200,0.04,0.04
"NCc1ccc(F)c(-c2ccc(N3C[C@H](Cn4ccnn4)OC3=O)cc2F)c1 [Example 55, (5R)-3-[5′-(aminomethyl)-2,2′-difluorobiphenyl-4-yl]-5-(1H-1,2,3-triazol-1-ylmethyl)-1,3-oxazolidin-2-one]",> 20,50,0.19,0.19
"CSc1ccc(-c2ccc(N3C[C@H](Cn4cccn4)OC3=O)cc2F)cc1 [Example 46, (5R)-3-[2-fluoro-4′-(methylsulfanyl)biphenyl-4-yl]-5-(1H-pyrazol-1-ylmethyl)-1,3-oxazolidin-2-one]",> 20,200,0.29,0.585
"NC[C@H]1CN(c2ccc(-c3ccoc3)c(F)c2)C(=O)O1 [Example 12, (5S)-5-(aminomethyl)-3-(3-fluoro-4-furan-3-ylphenyl)-1,3-oxazolidin-2-one]",–,200,1.14,1.14
"CS(=N)(=O)c1ccc(-c2ccc(N3C[C@H](Cn4ccnn4)OC3=O)cc2F)cc1 (stereo partly drawn) [Example 64, (5R)-5-((1H-1,2,3-triazol-1-yl)methyl)-3-(2-fluoro-4′-(S-methylsulfonimidoyl)-[1,1′-biphenyl]-4-yl)oxazolidin-2-one]",> 20,0.39,0.09,0.09
"NC[C@H]1CN(c2ccc(-c3ccc4cc[nH]c4c3)c(F)c2)C(=O)O1 [Example 27, (5S)-5-(aminomethyl)-3-[3-fluoro-4-(1H-indol-6-yl)phenyl]-1,3-oxazolidin-2-one]",> 50,200,0.78,0.39
"NC[C@H]1CN(c2ccc(-c3ccsc3)c(F)c2)C(=O)O1 [Example 15, (5S)-5-(aminomethyl)-3-(3-fluoro-4-thiophen-3-ylphenyl)-1,3-oxazolidin-2-one]",–,200,0.58,1.14
"CSc1ccc(-c2ccc(N3CC(Cn4ccnc4)OC3=O)cc2F)cc1 (stereo in doubt) [Example 45, (5R)-3-[2-fluoro-4′-(methylsulfanyl)biphenyl-4-yl]-5-(1H-imidazol-1-ylmethyl)-1,3-oxazolidin-2-one]",–,200,0.39,1.14
"NC[C@H]1CN(c2ccc(-c3cncc4[nH]ccc34)c(F)c2)C(=O)O1 [Example 35, (5S)-5-(aminomethyl)-3-[3-fluoro-4-(1H-pyrrolo[2,3-c]pyridin-4-yl)phenyl]-1,3-oxazolidin-2-one]",–,200,0.58,1.14
"CN(C)S(=O)(=O)c1ccc(-c2ccc(N3C[C@H](CN)OC3=O)cc2F)cc1 [Example 14, 4′-[(5S)-5-(aminomethyl)-2-oxo-1,3-oxazolidin-3-yl]-2′-fluoro-N,N-dimethylbiphenyl-4-sulfonamide]",–,200,1.14,0.78
"NC[C@H]1CN(c2ccc(-c3ccc(O)cc3)c(F)c2)C(=O)O1 [Example 11, (5S)-5-(aminomethyl)-3-(2-fluoro-4′-hydroxybiphenyl-4-yl)-1,3-oxazolidin-2-one]",–,200,0.14,25.1
